Patent US20140371262A1, “PREVENTIVE AND/OR THERAPEUTIC AGENT FOR THROMBOEMBOLISM IN THROMBOEMBOLISM PATIENT WITH SEVERE RENAL IMPAIRMENT” (Daiichi Sankyo Company, Limited, priority 2011, published 2014)

Tests used:
[1] = system: NVAF patients; assay: Late phase-II trial targeting NVAF patient in Japan (thromboembolic and bleeding events, 12 weeks); type: in vivo, human; settings: for Bleeding events, subjects with event/subjects / Incidence of bleeding events (major, clinically relevant non-major and minor bleeding in total): all subjects
[2] = system: patients with moderate to-high-risk atrial fibrillation; assay: ENGAGE-AF TIMI-48 phase 3 study of edoxaban versus warfarin in atrial fibrillation
[3] = system: NVAF patient with severe renal impairment or with normal renal functions or mild renal impairment; assay: Phase-III trial targeting NVAF patient with severe renal impairment; settings: for Any bleeding events (adjudicated), incidence / Any bleeding events (adjudicated), number of subjects with events / Clinically relevant non-major bleeding events, incidence / Clinically relevant non-major bleeding events, number of subjects with events / Major bleeding events, incidence / Major bleeding events, number of subjects with events: 12 weeks
[4] = 60 mg×1/day, 12 weeks, CLCR < 30 mL/min
[5] = each edoxaban group (30, 45, 60 mg) vs warfarin group
[6] = high-dose edoxaban (60 mg once daily, halved per criteria)
[7] = low-dose edoxaban (30 mg once daily, halved per criteria)
[8] = subgroup whose CLCR had become <30 mL/min during the trial, edoxaban 15 mg (N = 349), warfarin dose adjusted (N = 367)
[9] = Normal/MiRI (CLCR 50 mL/min or higher), high-dose 60 mg once a day
[10] = Normal/MiRI (CLCR 50 mL/min or higher), low-dose 30 mg once a day
[11] = SRI (CLCR 15 to <30 mL/min), edoxaban 15 mg once a day
[12] = any of the treatment groups (SRI 15 mg, Normal/MiRI 30 mg, 60 mg)

## CN1CCc2nc(C(=O)N[C@@H]3C[C@@H](C(=O)N(C)C)CC[C@@H]3NC(=O)C(=O)Nc3ccc(Cl)cn3)sc2C1 [edoxaban, N^1-(5-chloropyridin-2-yl)-N^2-((1S,2R,4S)-4-[(dimethylamino)carbonyl]-2-{[(5-methyl-4,5,6,7-tetrahydrothiazolo[5,4-c]pyridin-2-yl)carbonyl]amino}cyclohexyl)ethanediamide]
[1]; [4]
  Incidence of bleeding event (major, clinically relevant non-major and minor bleeding in total): 100.0%
  Incidence of major bleeding or clinically relevant non-major bleeding: 0%
  Major bleeding or clinically relevant non-major bleeding, subjects with event/subjects: (0/1)
[1]; [5]
  Incidence of bleeding events compared with the warfarin group: No statistically significant difference
  Incidence of major bleeding, or of major bleeding or clinically relevant non-major bleeding, compared with the warfarin group: not statistically significantly different
[1]; edoxaban 30 mg group, 12 weeks
  Bleeding events, subjects with event/subjects: 24/130
  Incidence of bleeding events (major, clinically relevant non-major and minor bleeding in total): 18.5%
[1]; edoxaban 45 mg group, 12 weeks
  Major bleeding, incidence: 2.2%
  Major bleeding, number of subjects: 3 subjects
  Bleeding events, subjects with event/subjects: 30/134
  Incidence of bleeding events (major, clinically relevant non-major and minor bleeding in total): 22.4%
[1]; edoxaban 45 mg group, 12 weeks, the only thromboembolic event of the trial
  Thromboembolic events: one cerebral infarction
[1]; edoxaban 60 mg group, 12 weeks
  Major bleeding, incidence: 1.5%
  Major bleeding, number of subjects: 2 subjects
  Bleeding events, subjects with event/subjects: 36/130
  Incidence of bleeding events (major, clinically relevant non-major and minor bleeding in total): 27.7%
[2]; 15 mg dose regimen of edoxaban, subgroup CLCR <30 mL/min
  Efficacy, safety and composite primary endpoint comprising ACM compared with warfarin: noninferior to warfarin
[2]; both once-daily regimens of edoxaban
  Prevention of stroke or systemic embolism compared with warfarin: noninferior to warfarin
[2]; high-dose edoxaban
  Hazard ratio vs warfarin, death from cardiovascular causes: 0.86
  Hazard ratio vs warfarin, key secondary end point: 0.87
  Hazard ratio vs warfarin, major bleeding: 0.80
  Hazard ratio vs warfarin, primary end point during treatment: 0.79
  Hazard ratio vs warfarin, primary end point, intention-to-treat analysis: 0.87
[2]; [6]
  Annualized rate of death from cardiovascular causes: 2.74%
  Annualized rate of major bleeding: 2.75%
  Annualized rate of the primary end point (stroke or systemic embolism) during treatment: 1.18%
  Rate of the key secondary end point (composite of stroke, systemic embolism, or death from cardiovascular causes): 3.85%
[2]; low-dose edoxaban
  Hazard ratio vs warfarin, death from cardiovascular causes: 0.85
  Hazard ratio vs warfarin, key secondary end point: 0.95
  Hazard ratio vs warfarin, major bleeding: 0.47
  Hazard ratio vs warfarin, primary end point during treatment: 1.07
  Hazard ratio vs warfarin, primary end point, intention-to-treat analysis: 1.13
[2]; [7]
  Annualized rate of death from cardiovascular causes: 2.71%
  Annualized rate of major bleeding: 1.61%
  Annualized rate of the primary end point (stroke or systemic embolism) during treatment: 1.61%
  Rate of the key secondary end point (composite of stroke, systemic embolism, or death from cardiovascular causes): 4.23%
[2]; [8]
  ACM (all cause mortality): # of events: 12
  ACM (all cause mortality): Event Rate: 1.95 %/yr
  Disabling Stroke: # of events: 3
  Disabling Stroke: Event Rate: 0.49 %/yr
  Fatal Bleed: # of events: 2
  Fatal Bleed: Event Rate: 0.33 %/yr
  Fatal SEE: # of events: 0
  Fatal SEE: Event Rate: 0.00 %/yr
  Fatal Stroke: # of events: 2
  Fatal Stroke: Event Rate: 0.33 %/yr
  First Disabling or Fatal Stroke, Fatal SEE, LT or Fatal Bleed, or ACM: # of events: 19
  First Disabling or Fatal Stroke, Fatal SEE, LT or Fatal Bleed, or ACM: Event Rate: 3.10 %/yr
  First Stroke, SEE or TIA: # of events: 15
  First Stroke, SEE or TIA: Event Rate: 2.48 %/yr
  First Stroke, SEE, Major Bleed, or ACM: # of events: 39
  First Stroke, SEE, Major Bleed, or ACM: Event Rate: 6.46 %/yr
  LT Bleed (life threatening): # of events: 2
  LT Bleed (life threatening): Event Rate: 0.33 %/yr
[3]; 15 mg of edoxaban for 12 weeks in patients with SRI
  Bleeding compared to the low dose or high dose in patients with Normal/miRI: did not result in a marked increase in bleeding
[3]; [9]
  Any bleeding events (adjudicated), incidence: 23.8%
  Any bleeding events (adjudicated), number of subjects with events: 5
  Clinically relevant non-major bleeding events, incidence: 4.8%
  Clinically relevant non-major bleeding events, number of subjects with events: 1
  Major bleeding events, incidence: 0.0%
  Major bleeding events, number of subjects with events: 0
[3]; [10]
  Any bleeding events (adjudicated), incidence: 22.7%
  Any bleeding events (adjudicated), number of subjects with events: 5
  Clinically relevant non-major bleeding events, incidence: 0%
  Clinically relevant non-major bleeding events, number of subjects with events: 0
  Major bleeding events, incidence: 0.0%
  Major bleeding events, number of subjects with events: 0
[3]; SRI 15-mg edoxaban group vs Normal/MiRI low-dose (30-mg) or high-dose (60-mg) group
  Difference in the incidence of any adjudicated bleeding events: No notable difference
[3]; [11]
  Any bleeding events (adjudicated), incidence: 20.0%
  Any bleeding events (adjudicated), number of subjects with events: 10
  Clinically relevant non-major bleeding events, incidence: 0%
  Clinically relevant non-major bleeding events, number of subjects with events: 0
  Major bleeding events, incidence: 0.0%
  Major bleeding events, number of subjects with events: 0
[3]; all serious adverse events were reported in the SRI 15-mg group
  Relation of the serious adverse events to the study drug: considered unrelated to the study drug
[3]; any of the treatment groups
  Deaths: No deaths were reported
[3]; [12]
  Adjudicated major bleeding events: No adjudicated major bleeding events occurred
  Thromboembolic events (cerebral infarction and systemic embolism): No cerebral infarction or systemic embolism occurred
